Fraction unbound and inhibition data for 34 compounds are collected here from US11312716B2, “9H-pyrrolo-dipyridine derivatives” (UCB Biopharma SRL, priority 2015, dated 2022).

A short description of data set [1]: Rat brain free fraction (Fu) measurement by equilibrium dialysis. The following applies: male, Sprague-Dawley, brain homogenate (25% w/v in PBS), pH 7.4. On the technique in general: In equilibrium dialysis free small molecules cross a membrane that holds back macromolecules.
Description: The Brain free faction was carried out in duplicate at a single concentration of 1 μM after 4 h of equilibrium dialysis.
Male Sprague-Dawley Rat (Harlan, Bresso, Italy) brain homogenate were prepared in PBS, pH 7.4 at 25% w/vy using a Precellys 24-dual tissue homogenizer (BERTIN technologies, Montigny-le-Bretonneux, France).
350 μL PBS pH 7.4 was loaded in the other chamber of the insert. The Red device reusable base counting insert containing insert with both samples and buffer was sealed and incubated during 4 h at 37° C., 300 rpm, on an orbital shaker.
At the end of the incubation, all brain samples were diluted 1:1 with PBS and PBS samples were diluted 1:1 with control brain homogenate. All samples were then diluted 1:3 with an internal standard (dextromethorphan 10 ng/mL in acetonitrile, Sigma, St Louis, United states), mixed and centrifuged 5 min at 3000 rpm at 4° C. Supernatant was diluted 1:2 with 0.1% formic acid in water (Biosolve, Dieuze, France) before analysis by LC/MS/MS. The LC system used was an Agilent 1290 (Agilent, Santa Clara, United states) coupled with a API5000 mass spectrometer (ABSciex, Framingham, United states). The software was analyst 1.5.2. (Agilent, Santa Clara, United states), the analytical column was an Aquity UPLC HSS T3 (30×2.1 mm, 1.8 μm, Waters, Saint-Quentin, France) operated at 40° C. Analysis were performed in the gradient described below. Gradient used for LC MS/MS
The Fu brain (%) was calculated using the following equation Fu brain(%)=(1/(1+((1/((fu homogenate)−1)×D)))×100 Where Fu homogenate=peak area ratio buffer/peak area ratio brain and D=dilution factor of the homogenate.
A further data set deals with rat MAO-A enzyme (Rattus norvegicus (Rat), UniProt P21396). Put plainly: Rat MAO-A binding, competition for [3H]Ro 41-1049 in rat cerebral cortex. The note with it: for inhibition at 0.01 µM: 10 nM test compound, 10 nM [3H]Ro 41-1049, read-out: Rat MAO-A Binding INHIB 10 nM; for inhibition at 0.1 µM: 100 nM test compound, 10 nM [3H]Ro 41-1049, read-out: Rat MAO-A Binding INHIB 100 nM. As to the method:
Compound selectivity for Tau protein was assessed as compared to a broad panel of receptors, enzymes and ion channels. Selectivity profiling of 10 μM compounds against a panel of 81 targets (n=1 with data in duplicate) was performed. Compounds affinity for rat MAO-A enzyme was assessed in rat cerebral cortex by competition experiment for 10 nM [^3H]Ro 41-1049 and increasing concentrations of test compounds. Compounds affinity for human MAO-A enzyme (1 μg/assay, Sigma-Aldrich, Diegem, Belgium) was assessed by saturation binding experiment performed as described above with [^3H]compounds.

Chain of rat MAO-A enzyme (P21396 whole entry): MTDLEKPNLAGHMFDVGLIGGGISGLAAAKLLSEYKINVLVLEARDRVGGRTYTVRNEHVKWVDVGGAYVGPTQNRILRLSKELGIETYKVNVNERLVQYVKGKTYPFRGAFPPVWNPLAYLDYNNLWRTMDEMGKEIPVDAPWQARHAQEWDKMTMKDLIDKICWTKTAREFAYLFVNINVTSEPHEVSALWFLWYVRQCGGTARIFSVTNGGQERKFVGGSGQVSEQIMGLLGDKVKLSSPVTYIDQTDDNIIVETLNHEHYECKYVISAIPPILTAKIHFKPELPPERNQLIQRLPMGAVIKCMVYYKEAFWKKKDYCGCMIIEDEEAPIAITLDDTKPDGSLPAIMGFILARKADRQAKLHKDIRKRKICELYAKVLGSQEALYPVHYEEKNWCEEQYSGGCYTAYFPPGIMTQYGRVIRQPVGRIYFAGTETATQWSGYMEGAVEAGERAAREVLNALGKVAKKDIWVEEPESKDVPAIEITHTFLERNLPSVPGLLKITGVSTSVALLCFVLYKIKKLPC

As usually defined, the fraction unbound is the share of the substance not bound to proteins or other matrix. A lower fraction unbound goes with extensive binding. In the case of `Oc1ccc(-c2ccc3c(n2)[nH]c2ccncc23)cn1` [Example 6, 5-(9H-pyrrolo[2,3-b:4,5-c′]dipyridin-2-yl)pyridin-2-ol], the fraction unbound at 4 h, 1 μM in data set [1] was 0.098.

In the case of `COCCNc1ncc(-c2ccc3c(n2)[nH]c2ccncc23)cn1` [Example 22, N-(2-methoxyethyl)-5-(9H-pyrrolo[2,3-b:4,5-c′]dipyridin-2-yl)pyrimidin-2-amine], at rat MAO-A enzyme, the inhibition at 0.01 µM is 8% and the inhibition at 0.1 µM was determined as 15%.

For the compound `Cc1cc2[nH]c3nc(-c4cnn(C)c4)ccc3c2cn1` [Example 47, 7-methyl-2-(1-methyl-1H-pyrazol-4-yl)-9H-pyrrolo[2,3-b: 4,5-c′]dipyridine], on rat MAO-A enzyme, the inhibition at 0.01 µM was -1% and the inhibition at 0.1 µM was determined as 10%. The unbound share (fraction unbound) at 4 h, 1 μM in data set [1] stood at 0.028.

Turning to `FCCn1cc(-c2ccc3c(n2)[nH]c2ccncc23)cn1` [Example 25, 2-[1-(2-fluoroethyl)-1H-pyrazol-4-yl]-9H-pyrrolo[2,3-b: 4,5-c′]dipyridine], on rat MAO-A enzyme, the inhibition at 0.01 µM stood at 13% and the inhibition at 0.1 µM turned out to be 2%. Further, the fraction unbound at 4 h, 1 μM in data set [1] stood at 0.087.

For `COc1cnn(-c2ccc3c(n2)[nH]c2ccncc23)c1` [Example 31, 2-(4-methoxy-1H-pyrazol-1-yl)-9H-pyrrolo[2,3-b:4,5-c′]dipyridine], at rat MAO-A enzyme, the inhibition at 0.01 µM came to 16% and the inhibition at 0.1 µM worked out at 39%. Also, the free fraction (fraction unbound) at 4 h, 1 μM in data set [1] came out at 0.007.

Take `CNC(=O)c1ccc(-c2ccc3c(n2)[nH]c2cc(COC)ncc23)cn1` [Example 49, 5-(7-(methoxymethyl)-9H-pyrrolo[2,3-b:4,5-c′]dipyridin-2-yl)-N-methylpicolinamide]: on rat MAO-A enzyme, the inhibition at 0.01 µM was -9% and the inhibition at 0.1 µM was -4%.

In turn, `COc1cc(-c2ccc3c(n2)[nH]c2ccncc23)ccn1` [Example 2, 2-(2-methoxypyridin-4-yl)-9H-pyrrolo[2,3-b:4,5-c′]dipyridine] came in with a fraction unbound at 4 h, 1 μM in data set [1] of 0.009.

With `Cn1cc(-c2ccc3c(n2)[nH]c2ccncc23)cn1` [Example 4, 2-(1-methyl-1H-pyrazol-4-yl)-9H-pyrrolo[2,3-b:4,5-c′]dipyridine], at rat MAO-A enzyme, the inhibition at 0.01 µM was 21% and the inhibition at 0.1 µM amounted to 50%. In addition, the unbound share (fraction unbound) at 4 h, 1 μM in data set [1] stood at 0.075.

Consider `CNC(=O)c1ccc(-c2ccc3c(n2)[nH]c2cc(C)ncc23)cn1` [Example 46, N-methyl-5-(7-methyl-9H-pyrrolo[2,3-b:4,5-c′]dipyridin-2-yl)picolinamide], for which, on rat MAO-A enzyme, the inhibition at 0.01 µM is 11% and the inhibition at 0.1 µM is 12%.

`Fc1ccc(-c2ccc3c(n2)[nH]c2cnccc23)cn1` [Example 54, 2-(6-fluoropyridin-3-yl)-9H-pyrrolo[2,3-b:5,4-c′]dipyridine]: at rat MAO-A enzyme, the inhibition at 0.01 µM worked out at 10% and the inhibition at 0.1 µM was 12%. This compound returned a free fraction (fraction unbound) at 4 h, 1 μM in data set [1] of 0.019.

For the compound `Cc1cc(-c2ccc3c(n2)[nH]c2ccncc23)n[nH]1` [Example 24, 2-(5-methyl-1H-pyrazol-3-yl)-9H-pyrrolo[2,3-b:4,5-c′]dipyridine], at rat MAO-A enzyme, the inhibition at 0.01 µM came out at 7% and the inhibition at 0.1 µM was determined as 9%. The same compound displayed a free fraction (fraction unbound) at 4 h, 1 μM in data set [1] of 0.02.

For the compound `CNC(=O)c1ccc(-c2ccc3c(n2)[nH]c2ccncc23)cn1` [Example 11, N-methyl-5-(9H-pyrrolo[2,3-b:4,5-c′]dipyridin-2-yl)pyridine-2-carboxamide], at rat MAO-A enzyme, the inhibition at 0.01 µM was -12% and the inhibition at 0.1 µM was -7%. In data set [1], this compound yielded a fraction unbound at 4 h, 1 μM of 0.028.

The compound `COc1cc2[nH]c3nc(-c4ccc(F)nc4)ccc3c2cn1` [Example 36, 2-(6-fluoropyridin-3-yl)-7-methoxy-9H-pyrrolo[2,3-b:4,5-c′]dipyridine] displayed a fraction unbound at 4 h, 1 μM in data set [1] of 0.005.

Take `CN(C)c1cc2[nH]c3nc(-c4cnn(C)c4)ccc3c2cn1` [Example 44, N,N-dimethyl-2-(1-methyl-1H-pyrazol-4-yl)-9H-pyrrolo[2,3-b:4,5-c′]dipyridin-7-amine]: at rat MAO-A enzyme, the inhibition at 0.01 µM amounted to 2% and the inhibition at 0.1 µM is 9%.

For the compound `c1cc2[nH]c3nc(-c4cnc(N5CCOCC5)s4)ccc3c2cn1` [Example 32, 4-(5-(9H-pyrrolo[2,3-b:4,5-c′]dipyridin-2-yl)thiazol-2-yl)morpholine], at rat MAO-A enzyme, the inhibition at 0.01 µM is 7% and the inhibition at 0.1 µM was 46%. In data set [1], this compound yielded a fraction unbound at 4 h, 1 μM of 0.005.

In data set [1], `c1cc(N2CCN(c3ccc4c(n3)[nH]c3ccncc34)CC2)ccn1` [Example 14, 2-(4-(pyridin-4-yl)piperazin-1-yl)-9H-pyrrolo[2,3-b:4,5-c′]dipyridine] displayed an unbound share (fraction unbound) at 4 h, 1 μM of 0.019.

Consider `c1cc2[nH]c3nc(-c4ccn[nH]4)ccc3c2cn1` [Example 15, 2-(1H-pyrazol-3-yl)-9H-pyrrolo[2,3-b:4,5-c′]dipyridine], for which the fraction unbound at 4 h, 1 μM in data set [1] is 0.056.

In turn, `c1cnc(N2CCN(c3ccc4c(n3)[nH]c3ccncc34)CC2)nc1` [Example 13, 2-(4-(pyrimidin-2-yl)piperazin-1-yl)-9H-pyrrolo[2,3-b:4,5-c′]dipyridine] yielded a fraction unbound at 4 h, 1 μM in data set [1] of 0.011.

Compound `Cc1cc2[nH]c3nc(-c4ccc(F)nc4)ccc3c2cn1` [Example 45, 2-(6-fluoropyridin-3-yl)-7-methyl-9H-pyrrolo[2,3-b:4,5-c′]dipyridine] displayed a fraction unbound at 4 h, 1 μM in data set [1] of 0.011.

For the compound `COCCNC(=O)c1ccc(-c2ccc3c(n2)[nH]c2ccncc23)cn1` [Example 30, N-(2-methoxyethyl)-5-(9H-pyrrolo[2,3-b:4,5-c′]dipyridin-2-yl)picolinamide], at rat MAO-A enzyme, the inhibition at 0.01 µM was found to be 2% and the inhibition at 0.1 µM is 9%.

Regarding `COc1ccc(-c2ccc3c(n2)[nH]c2ccncc23)cn1` [Example 5, 2-(6-methoxypyridin-3-yl)-9H-pyrrolo[2,3-b:4,5-c′]dipyridine], at rat MAO-A enzyme, the inhibition at 0.01 µM is 8% and the inhibition at 0.1 µM worked out at 39%. Moreover, the fraction unbound at 4 h, 1 μM in data set [1] was 0.006.

For `COCc1cc2[nH]c3nc(-c4cnn(C)c4)ccc3c2cn1` [Example 50, 7-(methoxymethyl)-2-(1-methyl-1H-pyrazol-4-yl)-9H-pyrrolo[2,3-b: 4,5-c′]dipyridine], at rat MAO-A enzyme, the inhibition at 0.01 µM was found to be 1% and the inhibition at 0.1 µM was 7%. This compound came in with an unbound share (fraction unbound) at 4 h, 1 μM in data set [1] of 0.04.

`COc1ncc(-c2ccc3c(n2)[nH]c2ccncc23)cc1F` [Example 7, 2-(5-fluoro-6-methoxypyridin-3-yl)-9H-pyrrolo[2,3-b:4,5-c′]dipyridine] returned an unbound share (fraction unbound) at 4 h, 1 μM in data set [1] of 0.005.

With `CNc1ccc(-c2ccc3c(n2)[nH]c2cnccc23)cn1` [Example 55, N-methyl-5-(9H-pyrrolo[2,3-b:5,4-c′]dipyridin-2-yl)pyridin-2-amine], at rat MAO-A enzyme, the inhibition at 0.01 µM came to 6% and the inhibition at 0.1 µM was 9%. The fraction unbound at 4 h, 1 μM in data set [1] was 0.005.

For `c1cc2[nH]c3nc(-c4cn[nH]c4)ccc3c2cn1` [Example 9, 2-(1H-pyrazol-4-yl)-9H-pyrrolo[2,3-b:4,5-c′]dipyridine], on rat MAO-A enzyme, the inhibition at 0.01 µM is -5% and the inhibition at 0.1 µM is 7%. Further, the fraction unbound at 4 h, 1 μM in data set [1] turned out to be 0.036.

In data set [1], `c1cc2[nH]c3nc(-c4cnc(N5CCOCC5)nc4)ccc3c2cn1` [Example 10, 4-(5-(9H-pyrrolo[2,3-b:4,5-c′]dipyridin-2-yl)pyrimidin-2-yl)morpholine] yielded an unbound share (fraction unbound) at 4 h, 1 μM of 0.011.

Compound `CNc1ccc(C(=O)Nc2ccc3c(n2)[nH]c2ccncc23)cn1` [Example 35, 6-(methylamino)-N-(9H-pyrrolo[2,3-b:4,5-c′]dipyridin-2-yl)nicotinamide] displayed a free fraction (fraction unbound) at 4 h, 1 μM in data set [1] of 0.005.

As to `CNC(=O)c1ccc(-c2ccc3c(n2)[nH]c2cnccc23)cn1` [Example 53, N-methyl-5-(9H-pyrrolo[2,3-b:5,4-c′]dipyridin-2-yl)picolinamide], on rat MAO-A enzyme, the inhibition at 0.01 µM is -10% and the inhibition at 0.1 µM was -13%. Further, the unbound share (fraction unbound) at 4 h, 1 μM in data set [1] came to 0.015.

For `Cn1cc(-c2ccc3c(n2)[nH]c2cnccc23)cn1` [Example 51, 2-(1-methyl-1H-pyrazol-4-yl)-9H-pyrrolo[2,3-b:5,4-c′]dipyridine], at rat MAO-A enzyme, the inhibition at 0.01 µM was determined as 3% and the inhibition at 0.1 µM stood at 6%. Further, the fraction unbound at 4 h, 1 μM in data set [1] worked out at 0.045.

Consider `Fc1ccc(-c2ccc3c(n2)[nH]c2ncccc23)cn1` [Example 57, 2-(6-fluoropyridin-3-yl)-9H-pyrrolo[2,3-b:5,4-b′]dipyridine], for which, on rat MAO-A enzyme, the inhibition at 0.01 µM came to 1% and the inhibition at 0.1 µM came out at 8%. The fraction unbound at 4 h, 1 μM in data set [1] came to 0.013.

In the case of `Nc1ncc(-c2ccc3c(n2)[nH]c2ccncc23)cc1F` [Example 12, 3-fluoro-5-(9H-pyrrolo[2,3-b:4,5-c′]dipyridin-2-yl)pyridin-2-amine], at rat MAO-A enzyme, the inhibition at 0.01 µM turned out to be 8% and the inhibition at 0.1 µM was 13%. The same compound had a fraction unbound at 4 h, 1 μM in data set [1] of 0.005.

`O=C(NCCF)c1ccc(-c2ccc3c(n2)[nH]c2ccncc23)cn1` [Example 29, N-(2-fluoroethyl)-5-(9H-pyrrolo[2,3-b:4,5-c′]dipyridin-2-yl)picolinamide]: at rat MAO-A enzyme, the inhibition at 0.01 µM turned out to be 8% and the inhibition at 0.1 µM came out at 23%.

With `c1cc2c(cn1)[nH]c1nc(-c3cn[nH]c3)ccc12` [Example 52, 2-(1H-pyrazol-4-yl)-9H-pyrrolo[2,3-b:5,4-c′]dipyridine], in data set [1], the unbound share (fraction unbound) at 4 h, 1 μM came out at 0.026.

In the case of `c1cc2[nH]c3nc(-c4ccc(N5CCOCC5)nc4)ccc3c2cn1` [Example 21, 4-(5-(9H-pyrrolo[2,3-b:4,5-c′]dipyridin-2-yl)pyridin-2-yl)morpholine], the fraction unbound at 4 h, 1 μM in data set [1] worked out at 0.005.
